# Test results: PubChem BioAssay (NCI)
#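 Five compound concentrations were applied to cells in 96-well plates for 48 hours; endpoints were derived by simple linear interpolation of the resulting dose-response curve. Here, GI50 denotes the concentration required for 50% inhibition of growth. TGI: concentration producing complete growth inhibition.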
# Tests used:
# Experiment in all cases: NCI-60 cell line screen, 48 h
# MALME-3M melanoma = system: MALME-3M melanoma
# TK-10 renal = system: TK-10 renal
# PC-3 prostate = system: PC-3 prostate
# MDA-MB-435 = system: MDA-MB-435
# UACC-62 melanoma = system: UACC-62 melanoma
# RPMI-8226 leukemia = system: RPMI-8226 leukemia
# HCC-2998 colon = system: HCC-2998 colon
# 786-0 renal = system: 786-0 renal
# M14 melanoma = system: M14 melanoma
# OVCAR-4 ovarian = system: OVCAR-4 ovarian
# SF-539 CNS = system: SF-539 CNS
# SF-268 CNS = system: SF-268 CNS
# EKVX NSCLC = system: EKVX NSCLC
# SR leukemia = system: SR leukemia
# HL-60(TB) leukemia = system: HL-60(TB) leukemia
# COLO 205 colon = system: COLO 205 colon
# KM12 colon = system: KM12 colon
# NCI-H522 lung = system: NCI-H522 lung
# A549 NSCLC = system: A549 NSCLC
# NCI/ADR-RES ovarian = system: NCI/ADR-RES ovarian
# IGROV1 ovarian = system: IGROV1 ovarian
# NCI-H23 lung = system: NCI-H23 lung
# MCF7 breast = system: MCF7 breast
# HCT-116 colon = system: HCT-116 colon
# SK-MEL-5 melanoma = system: SK-MEL-5 melanoma
# HS 578T breast = system: HS 578T breast
# BT-549 breast = system: BT-549 breast
# T-47D breast = system: T-47D breast
# SNB-75 CNS = system: SNB-75 CNS
compound,measurement,setting,value
Oc1[nH]c2ccccc2c1/C=c1/ccc2c(c1)N=C(c1cc(F)cc(F)c1)N=2,TGI,MALME-3M melanoma,28.3 µM
same,GI50,TK-10 renal,14 µM
same,TGI,TK-10 renal,27.7 µM
same,GI50,PC-3 prostate,3.37 µM
same,TGI,PC-3 prostate,16.7 µM
same,GI50,MDA-MB-435,1.92 µM
same,TGI,MDA-MB-435,5.08 µM
same,GI50,UACC-62 melanoma,4.18 µM
same,TGI,UACC-62 melanoma,20.3 µM
same,GI50,RPMI-8226 leukemia,3.22 µM
same,TGI,RPMI-8226 leukemia,17.5 µM
same,GI50,HCC-2998 colon,5.65 µM
same,TGI,HCC-2998 colon,20.7 µM
same,GI50,786-0 renal,10 µM
same,TGI,786-0 renal,22 µM
same,GI50,M14 melanoma,2.7 µM
same,TGI,M14 melanoma,13.6 µM
same,GI50,OVCAR-4 ovarian,3.33 µM
same,TGI,OVCAR-4 ovarian,13.5 µM
same,GI50,SF-539 CNS,13.6 µM
same,TGI,SF-539 CNS,31.4 µM
same,GI50,SF-268 CNS,9.44 µM
same,TGI,SF-268 CNS,25.6 µM
same,GI50,EKVX NSCLC,2.63 µM
same,TGI,EKVX NSCLC,17.5 µM
same,GI50,SR leukemia,2.43 µM
same,TGI,SR leukemia,9.21 µM
same,GI50,HL-60(TB) leukemia,12.6 µM
same,TGI,HL-60(TB) leukemia,40.5 µM
same,GI50,COLO 205 colon,8.45 µM
same,TGI,COLO 205 colon,23.4 µM
same,GI50,KM12 colon,4.36 µM
same,TGI,KM12 colon,19 µM
same,GI50,NCI-H522 lung,3.64 µM
same,TGI,NCI-H522 lung,18.6 µM
same,GI50,A549 NSCLC,4.65 µM
same,TGI,A549 NSCLC,23.7 µM
same,GI50,NCI/ADR-RES ovarian,4.18 µM
same,TGI,NCI/ADR-RES ovarian,17.7 µM
same,GI50,IGROV1 ovarian,10.5 µM
same,TGI,IGROV1 ovarian,28.1 µM
same,GI50,NCI-H23 lung,4.13 µM
same,TGI,NCI-H23 lung,17.7 µM
same,GI50,MCF7 breast,2.84 µM
same,TGI,MCF7 breast,14.1 µM
same,GI50,HCT-116 colon,2.43 µM
same,TGI,HCT-116 colon,8.06 µM
same,GI50,SK-MEL-5 melanoma,5.82 µM
same,TGI,SK-MEL-5 melanoma,19.1 µM
same,GI50,HS 578T breast,5.08 µM
same,TGI,HS 578T breast,31.9 µM
same,GI50,BT-549 breast,2.13 µM
same,TGI,BT-549 breast,12.1 µM
same,GI50,T-47D breast,4.55 µM
same,TGI,T-47D breast,21.3 µM
same,GI50,SNB-75 CNS,3.22 µM
same,TGI,SNB-75 CNS,17.7 µM
